# Test results taken from ChEMBL document CHEMBL1139519, “Are L-adenosine and its derivatives substrates for S-adenosyl-L-homocysteine hydrolase?” (J Med Chem, 2005).
# The source made the active and inactive calls. The calls are words filed in the database; no cut-off is given here.
# Legend:
# Adenosylhomocysteinase [1] = target: T1, Adenosylhomocysteinase (Homo sapiens, UniProt P23526)
# Target sequence in this assay (P23526 2-432 limits assumed): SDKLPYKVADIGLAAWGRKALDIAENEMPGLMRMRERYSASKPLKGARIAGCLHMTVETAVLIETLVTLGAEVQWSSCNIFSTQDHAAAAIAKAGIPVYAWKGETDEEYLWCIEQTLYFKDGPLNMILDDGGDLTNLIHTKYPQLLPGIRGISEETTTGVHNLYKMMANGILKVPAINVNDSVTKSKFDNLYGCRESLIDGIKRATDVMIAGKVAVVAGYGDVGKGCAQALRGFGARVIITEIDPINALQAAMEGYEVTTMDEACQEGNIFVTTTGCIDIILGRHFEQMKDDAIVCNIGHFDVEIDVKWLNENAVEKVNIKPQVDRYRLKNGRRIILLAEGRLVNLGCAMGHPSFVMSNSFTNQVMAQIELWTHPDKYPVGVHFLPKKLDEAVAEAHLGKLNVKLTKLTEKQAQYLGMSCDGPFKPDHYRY
# Description: Inhibitory potency against recombinant human placental S-Adenosyl-L-homocysteine Hydrolase at 200 uM
# Adenosylhomocysteinase [2] = target: T1, Adenosylhomocysteinase; assay: Inhibitory potency against recombinant human placental S-Adenosyl-L-homocysteine Hydrolase
# Target sequence in this assay (P23526 whole entry): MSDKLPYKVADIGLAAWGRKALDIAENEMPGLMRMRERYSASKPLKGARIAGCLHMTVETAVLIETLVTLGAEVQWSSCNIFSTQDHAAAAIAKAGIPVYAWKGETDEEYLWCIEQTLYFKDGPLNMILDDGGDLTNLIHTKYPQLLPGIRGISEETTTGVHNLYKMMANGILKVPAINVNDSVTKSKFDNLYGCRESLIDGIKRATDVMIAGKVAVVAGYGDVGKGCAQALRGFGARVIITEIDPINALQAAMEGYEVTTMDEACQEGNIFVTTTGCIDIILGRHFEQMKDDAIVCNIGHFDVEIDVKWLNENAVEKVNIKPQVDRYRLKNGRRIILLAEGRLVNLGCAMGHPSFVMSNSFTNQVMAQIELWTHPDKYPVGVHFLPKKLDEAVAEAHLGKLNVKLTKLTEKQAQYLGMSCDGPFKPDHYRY
# Adenosylhomocysteinase [3] = target: T1, Adenosylhomocysteinase; remark: listed apart in the source
# Target sequence in this assay (P23526 2-432 limits assumed): as the sequence (P23526 2-432 limits assumed) above
# Description: Inactivation constant against recombinant human placental S-Adenosyl-L-homocysteine Hydrolase
SMILES,Inhibitory potency (Adenosylhomocysteinase [1]),Ki (Adenosylhomocysteinase [2]) [µM],Kinact (Adenosylhomocysteinase [3]) [min⁻¹]
"Nc1ncnc2c1ncn2C1O[C@H](CO)[C@@H](O)[C@H]1O (single isomer, unassigned)",inactive,,
"Nc1ncnc2c1ncn2[C@H]1OC(/C=N/O)C(O)[C@@H]1O (single isomer, unassigned)",inactive,0.67,0.16
